According to publication PMC1636466 (Nucleic Acids Research, 2006):

Target: Vent(exo-) DNA polymerase (Thermococcus litoralis, UniProt P30317, D141A/E143A)
Details: natural primer/template PA/T0, 40 °C, supplied reaction buffer, dATP 10–800 μM

- Km: 5.52 µM
SMILES: Nc1ncnc2c1ncn2[C@H]1C[C@H](O)[C@@H](COP(=O)(O)OP(=O)(O)OP(=O)(O)O)O1 [dATP]
